This note sets out measurements from patent US8088791B2, “Antibacterial agents” (Biots Scientific Management Pty Ltd, priority 2006, dated 2012).

Experiment [1] has as its system Staphylococcus aureus ATCC29213. Description: Minimum Inhibitory Concentration (MIC) testing, broth microdilution, Staphylococcus aureus. It counts as cell-based. The following applies: Staphylococcus aureus ATCC29213; for MIC: read-out: Staphylococcus aureus MICs Activity. Put shortly:
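Broth microdilution per NCCLS M7-A5 in Mueller Hinton broth, with compound in 1.6% DMSO and inoculum at OD 0.09 diluted 1:100. Plates incubated 16–20 h at 37°C. MIC is the lowest concentration with no visible growth; scored A ≤8, B 16–64, C >64 μg/ml.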
(In general: Dilution methods test growth across graded concentrations, often in twofold steps.)

For a further experiment, the system named is Bacillus subtilis 168CA. Description: Minimum Inhibitory Concentration (MIC) testing, broth microdilution, Bacillus subtilis. It counts as cell-based. The conditions noted are these: Bacillus subtilis 168CA; for MIC: read-out: Bacillus subtilis MICs Activity. Put shortly:
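MICs were scored A (≦8 μg/ml), B (16–64 μg/ml) or C (>64 μg/ml), read as the lowest concentration preventing visible growth by eye and spectrophotometry. Plates incubated overnight (16–20 h) at 37 °C, inoculum OD 0.09 diluted 1:100 in 2× broth, per NCCLS guidelines.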

The structures appear in SMILES notation. Converted amounts (≈) assume the structure as drawn.

Take `CCCC/C=C/CCOc1cccc(C(N)=O)c1` [Example 40, 3-[(E)-3-Octenyloxy]benzenecarboxamide]: the MIC (in experiment [1]; in the experiment on Bacillus subtilis 168CA) was less than 8 µg/mL in each case.

For the compound `NC(=O)c1c(F)ccc(OCc2csc(-c3ccc(O)cc3)n2)c1F` [Example 304, 2,6-Difluoro-3-[2-(4-hydroxy-phenyl)-thiazol-4-ylmethoxy]-benzamide], the MIC (in experiment [1]; in the experiment on Bacillus subtilis 168CA) was less than 8 µg/mL each time.

As for `NC(=O)c1c(F)ccc(OCc2nc(-c3ccc(Cl)cc3)no2)c1Cl` [Example 270, 2-Chloro-3-[3-(4-chloro-phenyl)-[1,2,4]oxadiazol-5-ylmethoxy]-6-fluoro-benzamide], the MIC (in experiment [1]; in the experiment on Bacillus subtilis 168CA) was less than 8 µg/mL in each case.

`Cc1cc(COc2ccc(F)c(C(N)=O)c2F)ccc1F` [Example 147, 2,6-Difluoro-3-(4-fluoro-3-methyl-benzyloxy)-benzamide]: the MIC (in experiment [1]; with Bacillus subtilis 168CA) was 16 to 64 µg/mL (≈ 54.2 to 217 µM) each time.

`NC(=O)c1c(F)ccc(OCc2nc3cc(F)ccc3s2)c1F` [Example 216, 2,6-Difluoro-3-[(5-fluoro-1,3-benzothiazol-2-yl)methoxy]benzenecarboxamide]: the MIC (in experiment [1]; in the experiment with Bacillus subtilis 168CA) was less than 8 µg/mL each time.

With `Cc1oc(-c2ccc(Cl)cc2)nc1COc1ccc(F)c(C(N)=O)c1F` [Example 297, 3-[2-(4-Chloro-phenyl)-5-methyl-oxazol-4-ylmethoxy]-2,6-difluoro-benzamide], the MIC (in experiment [1]; in the experiment on Bacillus subtilis 168CA) was less than 8 µg/mL each time.

As for `CC(C)(C)c1nc(CCCOc2cccc(C(N)=O)c2)c(C(F)(F)F)o1` [Example 57, 3-{3-[2-(tert-Butyl)-5-(trifluoromethyl)-1,3-oxazol-4-yl]propoxy}benzenecarboxamide], the MIC is 16 to 64 µg/mL (≈ 43.2 to 173 µM) in experiment [1] and less than 8 µg/mL with Bacillus subtilis 168CA.

As to `C=CCc1sc(COc2ccc(F)c(C(N)=O)c2F)nc1-c1ccc(OC)cc1` [Example 120, 3-[5-Allyl-4-(4-methoxy-phenyl)-thiazol-2-ylmethoxy]-2,6-difluoro-benzamide], the MIC (in experiment [1]; in the experiment with Bacillus subtilis 168CA) was less than 8 µg/mL throughout.

In the case of `CCCCOC(=O)COc1cccc(C(N)=O)c1F` [Example 176, Butyl 2-[3-(aminocarbonyl)-2-fluorophenoxy]acetate], the values for the MIC (in experiment [1]; with Bacillus subtilis 168CA) were 16 to 64 µg/mL (≈ 59.4 to 238 µM) and less than 8 µg/mL, respectively.

Regarding `NC(=O)c1c(F)ccc(OCc2nc(Cc3ccc(Cl)cc3)no2)c1F` [Example 265, 3-[3-(4-Chlorobenzyl)-1,2,4-oxadiazol-5-yl]methoxy-2,6-difluorobenzenecarboxamide], the MIC in experiment [1] was 16 to 64 µg/mL (≈ 42.1 to 169 µM); with Bacillus subtilis 168CA it was less than 8 µg/mL.

For the compound `NC(=O)c1c(Cl)ccc(OCc2nc3cc(Cl)ccc3s2)c1F` [Example 220, 6-Chloro-3-[(5-chloro-1,3-benzothiazol-2-yl)methoxy]-2-fluorobenzenecarboxamide], the MIC (in experiment [1]; in the experiment with Bacillus subtilis 168CA) was less than 8 µg/mL throughout.

As to `NC(=O)c1c(F)ccc(OCc2nc(-c3ccc(C(F)(F)F)cc3)cs2)c1F` [Example 319, 2,6-Difluoro-3-[4-(4-trifluoromethyl-phenyl)-thiazol-2-ylmethoxy]-benzamide], the MIC (in experiment [1]; in the experiment on Bacillus subtilis 168CA) was less than 8 µg/mL throughout.

Take `COc1ccc(-c2nc(COc3ccc(F)c(C(N)=O)c3F)sc2-c2cccc(N)c2)cc1` [Example 284, 2,6-Difluoro-3-[5-(3-amino-phenyl)-4-(4-methoxy-phenyl)-thiazol-2-ylmethoxy]-benzamide]: the MIC (in experiment [1]; with Bacillus subtilis 168CA) was less than 8 µg/mL each time.

As to `NC(=O)c1c(F)ccc(OCc2nc(-c3ccc(Cl)cc3)co2)c1F` [Example 309, 3-[4-(4-Chloro-phenyl)-oxazol-2-ylmethoxy]-2,6-difluoro-benzamide], the MIC (in experiment [1]; in the experiment on Bacillus subtilis 168CA) was less than 8 µg/mL each time.

As to `Cc1csc(COc2ccc(F)c(C(N)=O)c2F)c1` [Example 187, 2,6-Difluoro-3-[(4-methyl-2-thienyl)methoxy]benzenecarboxamide], the MIC (in experiment [1]; with Bacillus subtilis 168CA) was 16 to 64 µg/mL (≈ 56.5 to 226 µM) in each case.

Consider `N#Cc1ccc(-c2nc(COc3ccc(F)c(C(N)=O)c3F)sc2Br)cc1` [Example 291, 3-[5-Bromo-4-(4-cyano-phenyl)-thiazol-2-ylmethoxy]-2,6-difluoro-benzamide], for which the MIC (in experiment [1]; in the experiment with Bacillus subtilis 168CA) was less than 8 µg/mL in each case.

Take `NC(=O)c1cccc(OCc2cccc(Br)c2)c1` [Example 171, 3-[(3-Bromobenzyl)oxy]benzenecarboxamide]: the MIC (in experiment [1]; in the experiment with Bacillus subtilis 168CA) was 16 to 64 µg/mL (≈ 52.3 to 209 µM) each time.

`Cn1ccnc1COc1ccc(F)c(C(N)=O)c1F` [Example 194, 2,6-Difluoro-3-[(1-methyl-1H-imidazol-2-yl)methoxy]benzenecarboxamide]: the MIC (in experiment [1]; in the experiment on Bacillus subtilis 168CA) was greater than 64 µg/mL in each case.

For `Cc1ccc(OCc2noc(COc3ccc(F)c(C(N)=O)c3F)n2)cc1` [Example 263, 2,6-Difluoro-3-(3-[(4-methylphenoxy)methyl]-1,2,4-oxadiazol-5-ylmethoxy)benzenecarboxamide], the figures for the MIC (in experiment [1]; with Bacillus subtilis 168CA) were 16 to 64 µg/mL (≈ 42.6 to 171 µM) and less than 8 µg/mL, respectively.

In the case of `Cc1ccc(-c2nc(COc3ccc(F)c(C(N)=O)c3F)co2)cc1` [Example 295, 2,6-Difluoro-3-(2-p-tolyl-oxazol-4-ylmethoxy)-benzamide], the MIC (in experiment [1]; in the experiment on Bacillus subtilis 168CA) was less than 8 µg/mL throughout.

`COc1ccc(-c2nc(COc3ccc(F)c(C(N)=O)c3F)co2)cc1` [Example 293, 2,6-Difluoro-3-[2-(4-methoxy-phenyl)-oxazol-4-ylmethoxy]-benzamide]: the MIC (in experiment [1]; in the experiment on Bacillus subtilis 168CA) was less than 8 µg/mL throughout.

On to `NC(=O)c1cccc(OCn2cccn2)c1` [Example 168, 3-(Pyrazol-1-ylmethoxy)-benzamide], for which the MIC (in experiment [1]; with Bacillus subtilis 168CA) was greater than 64 µg/mL in each case.

Regarding `NC(=O)c1c(F)ccc(OCc2nc(-c3ccc(OC(F)(F)F)cc3)cs2)c1F` [Example 320, 2,6-Difluoro-3-[4-(4-trifluoromethoxy-phenyl)-thiazol-2-ylmethoxy]-benzamide], the MIC (in experiment [1]; with Bacillus subtilis 168CA) was less than 8 µg/mL in each case.

As for `NC(=O)c1c(F)ccc(OCc2nc3cc(Cl)ccc3s2)c1Cl` [Example 221, 2-Chloro-3-[(5-chloro-1,3-benzothiazol-2-yl)methoxy]-6-fluorobenzenecarboxamide], the MIC (in experiment [1]; with Bacillus subtilis 168CA) was less than 8 µg/mL throughout.

For `COc1ccc(-c2nc(COc3ccc(F)c(C(N)=O)c3F)sc2-c2ccccc2OC)cc1` [Example 280, 2,6-Difluoro-3-[5-(2-methoxy-phenyl)-4-(4-methoxy-phenyl)-thiazol-2-ylmethoxy]-benzamide], the MIC (in experiment [1]; with Bacillus subtilis 168CA) was less than 8 µg/mL in each case.

Regarding `NC(=O)c1c(F)ccc(OCc2cc(-c3ccccc3)on2)c1F` [Example 163, 2,6-Difluoro-3-(5-phenyl-isoxazol-3-ylmethoxy)-benzamide], the MIC (in experiment [1]; with Bacillus subtilis 168CA) was less than 8 µg/mL throughout.

Turning to `CC(Oc1ccc(F)c(C(N)=O)c1F)c1nc(-c2ccc(Cl)cc2)no1` (centres unmarked) [Example 324, 3-{1-[3-(4-Chloro-phenyl)-[1,2,4]oxadiazol-5-yl]-ethoxy}-2,6-difluoro-benzamide], the MIC (in experiment [1]; in the experiment with Bacillus subtilis 168CA) was less than 8 µg/mL each time.

As to `C#CCCCCCCCCCOc1ccc(F)c(C(N)=O)c1` [Example 75, 2-Fluoro-5-(10-undecynyloxy)benzenecarboxamide], the MIC (in experiment [1]; in the experiment on Bacillus subtilis 168CA) was less than 8 µg/mL throughout.

For `Cc1ccc2ccc(COc3ccc(F)c(C(N)=O)c3F)nc2c1` [Example 103, 3-(7-Methylquinolin-2-ylmethoxy)-2,6-difluoro-benzamide], the MIC (in experiment [1]; with Bacillus subtilis 168CA) was less than 8 µg/mL in each case.

For `CC(C)c1ccc(-c2noc(COc3ccc(F)c(C(N)=O)c3F)n2)cc1` [Example 248, 2,6-Difluoro-3-[3-(4-isopropylphenyl)-1,2,4-oxadiazol-5-yl]methoxybenzenecarboxamide], the MIC (in experiment [1]; with Bacillus subtilis 168CA) was less than 8 µg/mL each time.

Consider `COc1ccc(-c2nc(COc3ccc(F)c(C(N)=O)c3F)sc2-c2cccnc2)cc1` [Example 121, 2,6-Difluoro-3-[4-(4-methoxy-phenyl)-5-pyridin-3-yl-thiazol-2-ylmethoxy]-benzamide], for which the MIC (in experiment [1]; with Bacillus subtilis 168CA) was less than 8 µg/mL each time.

In the case of `CCCCCCOc1nccc(C(N)=O)c1Cl` [Example 174, 3-Chloro-2-(hexyloxy)isonicotinamide], the MIC (in experiment [1]; with Bacillus subtilis 168CA) was 16 to 64 µg/mL (≈ 62.3 to 249 µM) each time.

As for `Cc1nc(COc2ccc(F)c(C(N)=O)c2F)cs1` [Example 190, 2,6-Difluoro-3-[(2-methyl-1,3-thiazol-4-yl)methoxy]benzenecarboxamide], the MIC (in experiment [1]; in the experiment on Bacillus subtilis 168CA) was 16 to 64 µg/mL (≈ 56.3 to 225 µM) in each case.

Consider `Cc1ccccc1-c1noc(COc2ccc(F)c(C(N)=O)c2F)n1` [Example 252, 2,6-Difluoro-3-[3-(2-methylphenyl)-1,2,4-oxadiazol-5-yl]methoxybenzenecarboxamide], for which the MIC (in experiment [1]; in the experiment on Bacillus subtilis 168CA) was less than 8 µg/mL in each case.

With `CCCC(C)COc1cccc(C(N)=O)c1` (centres unmarked) [Example 39, 3-[(2-Methylpentyl)oxy]benzenecarboxamide], the MIC (in experiment [1]; in the experiment with Bacillus subtilis 168CA) was 16 to 64 µg/mL (≈ 72.3 to 289 µM) throughout.

In the case of `NC(=O)c1c(F)ccc(OCc2nc(Cc3ccccc3)cs2)c1F` [Example 137, 3-(4-Benzyl-thiazol-2-ylmethoxy)-2,6-difluoro benzamide], the “Staphylococcus aureus MICs Activity” value in experiment [1] is “B (‘B’ if the MIC was 16 to 64 micrograms/ml)”. Further, in the experiment with Bacillus subtilis 168CA, the “Bacillus subtilis MICs Activity” value was “B (‘B’ if the MIC was 16 to 64 micrograms/ml)”.

Turning to `CC(=O)OCCCCCOc1cccc(C(N)=O)c1` [Example 18, 5-[3-(Aminocarbonyl)phenoxy]pentyl acetate], the MIC (in experiment [1]; in the experiment on Bacillus subtilis 168CA) was greater than 64 µg/mL in each case.
